Non-standard residues stand in square brackets, D forms with d. Residues, ends and D or L forms follow the SMILES beside them. *: point of attachment. Boc = CC(C)(C)OC(=O)*; Aib = CC(C)(N)C(=O)O; Bz = O=C(c1ccccc1)*; βAla = NCCC(=O)O Some results are limits rather than exact numbers.
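Further: amino acid uptake through Gap1 in nitrogen-starved wild-type yeast cells, measured after 60 s and expressed relative to L-citrulline.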

The target in this test is T1, General amino-acid permease GAP1 (Saccharomyces cerevisiae) (UniProt P19145).
T1 sequence (whole entry): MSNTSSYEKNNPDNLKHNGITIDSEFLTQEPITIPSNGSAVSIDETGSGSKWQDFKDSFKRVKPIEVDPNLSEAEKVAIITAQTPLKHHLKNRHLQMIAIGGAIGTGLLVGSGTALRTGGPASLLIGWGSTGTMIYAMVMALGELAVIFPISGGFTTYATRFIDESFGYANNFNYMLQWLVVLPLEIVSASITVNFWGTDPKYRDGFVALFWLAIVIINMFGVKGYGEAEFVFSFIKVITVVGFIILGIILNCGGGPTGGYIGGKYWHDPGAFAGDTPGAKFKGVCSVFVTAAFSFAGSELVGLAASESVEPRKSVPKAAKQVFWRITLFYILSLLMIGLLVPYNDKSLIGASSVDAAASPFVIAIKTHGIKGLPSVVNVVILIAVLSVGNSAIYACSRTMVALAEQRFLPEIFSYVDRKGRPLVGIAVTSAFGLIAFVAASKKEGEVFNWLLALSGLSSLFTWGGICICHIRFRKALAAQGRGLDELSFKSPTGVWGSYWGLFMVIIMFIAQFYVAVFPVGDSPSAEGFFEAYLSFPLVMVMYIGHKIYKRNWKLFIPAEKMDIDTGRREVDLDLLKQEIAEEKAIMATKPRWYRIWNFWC
As to conditions: sigma1278b, at 5 mM.
Description: Inhibition of nitrogen-starved wild type sigma1278b yeast Gap1-mediated amino acid uptake at 5 mM after 60 secs relative to L-citrulline
Molecule `NCC(=O)N[C@@H](Cc1ccccc1)C(N)=O` (H-Gly-Phe-NH2) returned an inhibition of 15%.

In the case of `N[C@@H](Cc1cnc[nH]1)C(=O)NCC(=O)NCC(=O)O` (H-His-Gly-Gly-OH), the inhibition is under 15%.

For the molecule `NC(=O)[C@H](CCC(=O)O)NC(=O)[C@@H]1CCCN1` (H-Pro-Glu-NH2), the inhibition is under 15%.

Molecule `CC(C)C[C@H](NC(=O)CN)C(=O)N[C@@H](Cc1ccc(O)cc1)C(=O)O` (H-Gly-Leu-Tyr-OH) returned an inhibition of under 15%.

Turning to `CC[C@H](C)[C@H](N)C(=O)N[C@@H](CO)C(=O)O` (H-Ile-Ser-OH), the inhibition was under 15%.

Regarding `CSCC[C@H](N)C(=O)N[C@@H](CCCNC(=N)N)C(=O)N[C@@H](Cc1ccccc1)C(=O)O` (H-Met-Arg-Phe-OH), the inhibition was 15%.

With `CC(C)(C)OC(=O)NCCC[C@H](N)C(=O)O`, the inhibition was under 15%.

`C[C@H](NC(=O)OC(C)(C)C)C(=O)NC(C)(C)C(=O)O` (Boc-Ala-[Aib]-OH) registered an inhibition of under 15%.

On to `NC(=O)[C@@H](N)CO`, for which the inhibition was under 15%.

In the case of `CC(C)C[C@H](NC(=O)[C@H](CC(C)C)NC(=O)[C@@H](N)CC(=O)O)C(=O)O` (H-Asp-Leu-Leu-OH), the inhibition turned out to be 15%.

For `C[C@H](NC(=O)CNC(=O)CN)C(=O)O`, the inhibition is under 15%.

In turn, `CCCC[C@H](NC(=O)OC(C)(C)C)C(=O)O` yielded an inhibition of under 15%.

For `N[C@@H](CO)C(=O)N[C@@H](Cc1ccc(O)cc1)C(=O)O` (H-Ser-Tyr-OH), the inhibition is under 15%.

`CC(C)C[C@H](N)C(=O)NCC(=O)N1CCC[C@H]1C(=O)O` (H-Leu-Gly-Pro-OH) came in with an inhibition of under 15%.

Turning to `CSCC[C@H](N)C(=O)N[C@@H](Cc1cnc[nH]1)C(=O)O` (H-Met-His-OH), the inhibition is under 15%.

As to `CC(C)C[C@H](NC(=O)CN)C(=O)O` (racemic), the inhibition came to 15%.

For the molecule `CCCC(NC(=O)CN)C(=O)O` (racemic), the inhibition is 15%.

`NCC(=O)N[C@@H](CC(N)=O)C(=O)O` (H-Gly-Asn-OH) showed an inhibition of under 15%.

For `CC(C)C[C@H](N)C(=O)N[C@@H](CC(N)=O)C(=O)O` (H-Leu-Asn-OH), the inhibition was under 15%.

`CC(C)C[C@@H](N)C(=O)NCC(=O)O` (H-[dL]-Gly-OH) returned an inhibition of under 15%.

Molecule `CSCC[C@H](NC(=O)[C@@H](N)Cc1cnc[nH]1)C(=O)O` (H-His-Met-OH) gave an inhibition of 15%.

Molecule `N[C@H]1CSSC[C@@H](C(=O)O)NC1=O` came in with an inhibition of 15%.

As for `CC(C)(C)OC(=O)NCC(=O)N1CCC[C@H]1C(=O)N1CCC[C@H]1C(=O)O` (Boc-Gly-Pro-Pro-OH), the inhibition was under 15%.

`CSCC[C@H](NC(=O)[C@@H](N)Cc1c[nH]c2ccccc12)C(=O)O` (H-Trp-Met-OH) came in with an inhibition of under 15%.

`N[C@@H](Cc1c[nH]c2ccccc12)C(=O)N[C@@H](CCC(=O)O)C(=O)O` (H-Trp-Glu-OH) yielded an inhibition of under 15%.

In the case of `CC(=O)N[C@@H](CCC(=O)OC(C)(C)C)C(=O)O`, the inhibition was under 15%.

Molecule `CC[C@H](C)[C@H](N)C(=O)N[C@H](C(=O)O)[C@@H](C)CC` (H-Ile-Ile-OH) gave an inhibition of under 15%.

In the case of `COC(=O)[C@@H](N)CO`, the inhibition is under 15%.

`C[C@H](NC=O)C(=O)O`: the inhibition was over 30%.

Consider `N=C(N)NCCC[C@H](NC(=O)[C@@H](N)Cc1ccccc1)C(=O)O` (H-Phe-Arg-OH), for which the inhibition is under 15%.

In the case of `N[C@@H](CO)C(=O)NCC(=O)NCC(=O)O` (H-Ser-Gly-Gly-OH), the inhibition is under 15%.

`C[C@H](N)C(=O)N[C@@H](CC(N)=O)C(=O)O` (H-Ala-Asn-OH) gave an inhibition of over 30%.

In the case of `CC(C)C[C@H](NC(=O)[C@@H](N)CC(C)C)C(=O)N[C@@H](Cc1cnc[nH]1)C(=O)O` (H-Leu-Leu-His-OH), the inhibition is under 15%.

`CC(C)(C)OC(=O)[C@@H](N)Cc1ccccc1` gave an inhibition of under 15%.

In the case of `C[C@@H](NC(=O)CN)C(=O)O` (H-Gly-[dA]-OH), the inhibition is under 15%.

With `CC(C)C[C@H](NC(=O)CCN)C(=O)O`, the inhibition was under 15%.

`N[C@@H](Cc1ccc(O)cc1)C(=O)N[C@@H](Cc1ccc(O)cc1)C(=O)N[C@@H](Cc1ccc(O)cc1)C(=O)O` (H-Tyr-Tyr-Tyr-OH) came in with an inhibition of under 15%.

Consider `NCC(=O)NCC(=O)N[C@@H](CO)C(=O)O`, for which the inhibition was under 15%.

`CC(C)[C@H](N)C(=O)NCC(=O)O` (H-Val-Gly-OH) yielded an inhibition of under 15%.

As to `N[C@@H](CCC(=O)O)C(=O)N[C@@H](Cc1c[nH]c2ccccc12)C(=O)N[C@@H](CCC(=O)O)C(=O)O` (H-Glu-Trp-Glu-OH), the inhibition is under 15%.

On to `NCC(=O)NCC(=O)NCCC(=O)O` (H-Gly-Gly-[βAla]-OH), for which the inhibition is under 15%.

`CC(C)C(NC(=O)CN)C(=O)O` (racemic) showed an inhibition of under 15%.

In turn, `CC(C)C[C@H](NC(=O)[C@@H](N)CC(C)C)C(=O)NCCC(=O)O` (H-Leu-Leu-[βAla]-OH) showed an inhibition of over 30%.

For `CSCC[C@H](NC(=O)CN)C(=O)O`, the inhibition is under 15%.

The molecule `NC(=O)CC[C@H](NC(=O)[C@@H](N)CO)C(=O)O` (H-Ser-Gln-OH) registered an inhibition of under 15%.

Regarding `CC(C)(C)OC(=O)N[C@@H](CO)C(=O)O`, the inhibition was under 15%.

The molecule `CCC[C@H](N)C(=O)OC` came in with an inhibition of under 15%.

`CC(N)(Cc1ccccc1)C(=O)O` (centres undefined) displayed an inhibition of under 15%.

With `CCOC(=O)C(N)Cc1c[nH]c2ccccc12` (racemic), the inhibition is under 15%.

`CC(C)C[C@H](NC(=O)[C@@H](N)CC(C)C)C(=O)O` had an inhibition of under 15%.

`CN[C@@H](Cc1cnc[nH]1)C(=O)O` gave an inhibition of under 15%.

`CSCC[C@H](NC(=O)[C@H](Cc1ccc(O)cc1)NC(=O)[C@@H](N)CC(=O)O)C(=O)O` (H-Asp-Tyr-Met-OH) returned an inhibition of under 15%.

The molecule `C[C@H](N)C(=O)N[C@@H](Cc1c[nH]c2ccccc12)C(=O)O` (H-Ala-Trp-OH) displayed an inhibition of over 30%.

Take `CCOC(=O)[C@@H](N)CCSC`: the inhibition is under 15%.

With `CC(C)C[C@H](NC(=O)[C@@H](N)CC(C)C)C(=O)N[C@@H](CC(=O)O)C(=O)O` (H-Leu-Leu-Asp-OH), the inhibition was over 30%.

For `O=C(O)CNC(=O)CNC(=O)c1ccccc1` (Bz-Gly-Gly-OH), the inhibition was under 15%.

Turning to `N[C@@H](Cc1cnc[nH]1)C(=O)NCC(=O)N[C@@H](Cc1cnc[nH]1)C(=O)O` (H-His-Gly-His-OH), the inhibition is under 15%.

As to `COC(=O)[C@H](Cc1ccccc1)NC(=O)C[C@H](N)C(=O)O`, the inhibition was over 30%.

Regarding `CC(C)[C@H](N)C(N)=O`, the inhibition is under 15%.

`C[C@H](N)C(=O)N[C@@H](Cc1cnc[nH]1)C(=O)O` (H-Ala-His-OH) registered an inhibition of over 30%.

Regarding `CC(C)[C@H](NC(=O)[C@@H](N)Cc1ccccc1)C(=O)O` (H-Phe-Val-OH), the inhibition is under 15%.

The molecule `CC(C)C[C@H](NC(=O)[C@@H](N)C(C)C)C(=O)O` (H-Val-Leu-OH) registered an inhibition of under 15%.

`C[C@H](NC(=O)[C@@H](N)Cc1ccc(O)cc1)C(=O)N[C@@H](CCCNC(=N)N)C(=O)O` (H-Tyr-Ala-Arg-OH) displayed an inhibition of under 15%.

`CC(=O)N[C@@H](CC[S+](C)[O-])C(=O)O` (some centres undefined) gave an inhibition of under 15%.

One may read the inhibition as the relative decrease from the control value, in per cent. The low end stands for a response near the control, the high end for a response far below the control.

The values are drawn from ChEMBL document CHEMBL1221220, “Transport and signaling via the amino acid binding site of the yeast Gap1 amino acid transceptor” (Nat Chem Biol, 2009).
